Here are results for 24 compounds from patent US9296741B2, “Bromodomain inhibitors” (priority 2012, dated 2016).

pEC50, pKi: −log10 of the molar value.

In data set [1] the test system is breast cancer cell line MX-1. Kind of data set: MX-1 cell line proliferation assay. It counts as cell-based, human. Conditions: Homo sapiens, MX1, 72 h; MX-1 cells, 3-day proliferation, Cell Titer Glo; read-out: Cellular proliferation: EC50.
Data set [2] concerns the target human BRD4 second bromodomain (BDII_E352-M457) (Homo sapiens (Human), UniProt O60885). Kind of data set: TR-FRET bromodomain binding assay, BRD4 second bromodomain.
The target of data set [3] is human BRD4 first bromodomain (BDI_K57-E168) (Homo sapiens (Human), UniProt O60885). Kind of data set: TR-FRET bromodomain binding assay, BRD4 first bromodomain.
A short description of data set [4]: Human liver microsome stability assay. It counts as in vitro ADME. As to conditions: both sexes, human, microsomes, pH 7.4.
The nature of data set [5]: Rat liver microsome stability assay. It counts as in vitro ADME. As to conditions: rat liver microsomes (male Sprague-Dawley), 0.5 μM test compound, pH 7.4, 37° C.; for half-life at 0.5 μM: 0.25 mg/mL microsomal protein, read-out: Stability in rat liver microsomes (t1/2 in minutes); for Stability in rat liver microsomes (t1/2 in minutes): […] microsomal protein.

As for `COC(=O)c1cc2c(-c3ccccc3Oc3ccccc3)cn(C)c(=O)c2n1C` [Example 68, methyl 1,6-dimethyl-7-oxo-4-(2-phenoxyphenyl)-6,7-dihydro-1H-pyrrolo[2,3-c]pyridine-2-carboxylate], the pEC50 in data set [1] was 5.23. Also, the negative-log Ki (pKi) is 5.59 in data set [2] and 5.77 in data set [3].
`Cn1cc(-c2cc(NS(=O)(=O)CCF)ccc2Oc2ccc(C#N)cc2)c2cc[nH]c2c1=O` [Example 113, N-[4-(4-cyanophenoxy)-3-(6-methyl-7-oxo-6,7-dihydro-1H-pyrrolo[2,3-c]pyridin-4-yl)phenyl]-2-fluoroethanesulfonamide]: the pEC50 in data set [1] was < 5.52. Besides, the pKi in data set [2] was 6.42; in data set [3] it was 7.32.
Regarding `Cc1cc(OCC2CC2)c(-c2cn(C)c(=O)c3[nH]ccc23)cc1NS(C)(=O)=O` [Example 263, N-[4-(cyclopropylmethoxy)-2-methyl-5-(6-methyl-7-oxo-6,7-dihydro-1H-pyrrolo[2,3-c]pyridin-4-yl)phenyl]methanesulfonamide], the half-life at 0.5 μM in data set [4] came to 70 min; in data set [5] it was 72 min. In data set [1], the pEC50 was 7.11. Moreover, the figures for the pKi in data set [2] and in data set [3] were 7.79 and 8.06, respectively.
Turning to `Cn1cc(-c2cc(NS(C)(=O)=O)ccc2Oc2ccccc2)c2cc(CO)[nH]c2c1=O` [Example 89, N-{3-[2-(hydroxymethyl)-6-methyl-7-oxo-6,7-dihydro-1H-pyrrolo[2,3-c]pyridin-4-yl]-4-phenoxyphenyl}methanesulfonamide], the pEC50 in data set [1] was 7.60. Also, the values for the pKi in data set [2] and in data set [3] were 8.68 and 8.80, respectively.
In data set [4], `Cn1cc(-c2ccccc2Oc2ccccc2)c2cc[nH]c2c1=O` [Example 1, 6-methyl-4-(2-phenoxyphenyl)-1,6-dihydro-7H-pyrrolo[2,3-c]pyridin-7-one] yielded a half-life at 0.5 μM of 9 min. For the same compound, the “Stability in rat liver microsomes (t1/2 in minutes)” value in data set [5] is 1 min. Moreover, the pEC50 in data set [1] was 6.86. For the same compound, the pKi in data set [2] was 7.39; in data set [3], 6.87.
On to `Cn1cc(-c2cc(S(C)(=O)=O)ccc2OC2Cc3ccccc3C2)c2cc[nH]c2c1=O` [Example 277, 4-[2-(2,3-dihydro-1H-inden-2-yloxy)-5-(methylsulfonyl)phenyl]-6-methyl-1,6-dihydro-7H-pyrrolo[2,3-c]pyridin-7-one], for which the half-life at 0.5 μM in data set [4] amounted to 4 min; in data set [5], 5 min. For the same compound, the pEC50 in data set [1] is 7.68. For the same compound, the pKi in data set [2] was 7.84; in data set [3], 8.20.
For `CCS(=O)(=O)Cc1ccc(Oc2ccc(F)cc2F)c(-c2cn(C)c(=O)c3[nH]ccc23)c1` [Example 297, 4-{2-(2,4-difluorophenoxy)-5-[(ethylsulfonyl)methyl]phenyl}-6-methyl-1,6-dihydro-7H-pyrrolo[2,3-c]pyridin-7-one], in that order: 83 min, 43 min, 7.73, 8.28 and 7.85.
Consider `CCS(=O)(=O)Nc1ccc(OCc2cc(C)nn2C)c(-c2cn(C)c(=O)c3[nH]ccc23)c1` [Example 143, N-{4-[(1,3-dimethyl-1H-pyrazol-5-yl)methoxy]-3-(6-methyl-7-oxo-6,7-dihydro-1H-pyrrolo[2,3-c]pyridin-4-yl)phenyl}ethanesulfonamide], for which, in data set [1], the pEC50 is 6.43. Also, the negative-log Ki (pKi) in data set [2] is 6.97; in data set [3], 7.65.
For `Cn1cc(-c2cc(S(C)(=O)=O)ccc2OCCC2CC2)c2cc[nH]c2c1=O` [Example 219, 4-[2-(2-cyclopropylethoxy)-5-(methylsulfonyl)phenyl]-6-methyl-1,6-dihydro-7H-pyrrolo[2,3-c]pyridin-7-one], in that order: 7.75, 8.54 and 8.44.
As for `Cn1cc(-c2cc(S(C)(=O)=O)ccc2OC2CCCC2)c2cc[nH]c2c1=O` [Example 216, 4-[2-(cyclopentyloxy)-5-(methylsulfonyl)phenyl]-6-methyl-1,6-dihydro-7H-pyrrolo[2,3-c]pyridin-7-one], the pEC50 in data set [1] was 8.18. For the same compound, the negative logarithm of the Ki (pKi) in data set [2] and in data set [3] was 8.74 throughout.
As for `CCOC(=O)c1ccc(Oc2ccccc2)c(-c2cn(C)c(=O)c3[nH]ccc23)c1` [Example 9, ethyl 3-(6-methyl-7-oxo-6,7-dihydro-1H-pyrrolo[2,3-c]pyridin-4-yl)-4-phenoxybenzoate], the “Stability in rat liver microsomes (t1/2 in minutes)” value in data set [5] came out at 1 min. Moreover, the pEC50 in data set [1] was 6.95.
Take `CCS(=O)(=O)N(CCN1CCCC1=O)c1ccc(Oc2ccc(F)cc2F)c(-c2cn(C)c(=O)c3[nH]ccc23)c1` [Example 344, N-[4-(2,4-difluorophenoxy)-3-(6-methyl-7-oxo-6,7-dihydro-1H-pyrrolo[2,3-c]pyridin-4-yl)phenyl]-N-[2-(2-oxopyrrolidin-1-yl)ethyl]ethanesulfonamide]: the pEC50 in data set [1] is 6.20. In addition, the pKi in data set [2] was 6.87; in data set [3] it was 6.37.
For `CCS(=O)(=O)N(CCOC)c1ccc(Oc2ccc(F)cc2F)c(-c2cn(C)c(=O)c3[nH]ccc23)c1` [Example 341, N-[4-(2,4-difluorophenoxy)-3-(6-methyl-7-oxo-6,7-dihydro-1H-pyrrolo[2,3-c]pyridin-4-yl)phenyl]-N-(2-methoxyethyl)ethanesulfonamide], in that order: 6.21, 7.09 and 6.53.
For `Cn1cc(-c2cc(NS(C)(=O)=O)ccc2Oc2ccccc2C#N)c2cc[nH]c2c1=O` [Example 25, N-[4-(2-cyanophenoxy)-3-(6-methyl-7-oxo-6,7-dihydro-1H-pyrrolo[2,3-c]pyridin-4-yl)phenyl]methanesulfonamide], in that order: 7.25, 8.44 and 8.52.
For `CCOC(=O)c1cc2c(-c3cc(N(CC)S(C)(=O)=O)ccc3Oc3ccccc3)nn(C)c(=O)c2[nH]1` [Example 76, ethyl 4-{5-[ethyl(methylsulfonyl)amino]-2-phenoxyphenyl}-6-methyl-7-oxo-6,7-dihydro-1H-pyrrolo[2,3-d]pyridazine-2-carboxylate], in that order: 6.54, 7.53 and 7.18.
In the case of `CNS(=O)(=O)c1ccc(NCC2CC2)c(-c2cn(C)c(=O)c3[nH]ccc23)c1` [Example 239, 4-[(cyclopropylmethyl)amino]-N-methyl-3-(6-methyl-7-oxo-6,7-dihydro-1H-pyrrolo[2,3-c]pyridin-4-yl)benzenesulfonamide], the pEC50 in data set [1] is 8.00. In addition, the results for the pKi in data set [2] and in data set [3] were 8.62 and 8.55, respectively.
For the compound `Cn1cc(-c2cc(S(C)(=O)=O)ccc2OCC2CCC2)c2cc[nH]c2c1=O` [Example 234, 4-[2-(cyclobutylmethoxy)-5-(methylsulfonyl)phenyl]-6-methyl-1,6-dihydro-7H-pyrrolo[2,3-c]pyridin-7-one], the pEC50 in data set [1] was 7.80. Besides, the pKi was 8.47 in data set [2] and 8.52 in data set [3].
For `Cn1cc(-c2cc(S(C)(=O)=O)ccc2Oc2ccc(F)cc2F)c2cc(COc3cccnc3)[nH]c2c1=O` [Example 289, 4-[2-(2,4-difluorophenoxy)-5-(methylsulfonyl)phenyl]-6-methyl-2-[(pyridin-3-yloxy)methyl]-1,6-dihydro-7H-pyrrolo[2,3-c]pyridin-7-one], in that order: < 5.52, 6.51 and 7.91.
Turning to `CC1CCC(Oc2ccc(S(C)(=O)=O)cc2-c2cn(C)c(=O)c3[nH]ccc23)CC1` (centres unmarked) [Example 233, 6-methyl-4-{2-[(4-methylcyclohexyl)oxy]-5-(methylsulfonyl)phenyl}-1,6-dihydro-7H-pyrrolo[2,3-c]pyridin-7-one], the pEC50 in data set [1] was 8.16. Moreover, the pKi was 8.82 in data set [2] and 8.66 in data set [3].
For `CN1CCC(NC(=O)c2ccc(Oc3ccc(F)cc3F)c(-c3cn(C)c(=O)c4[nH]ccc34)c2)C1=O` (centres unmarked) [Example 53, 4-(2,4-difluorophenoxy)-3-(6-methyl-7-oxo-6,7-dihydro-1H-pyrrolo[2,3-c]pyridin-4-yl)-N-(1-methyl-2-oxopyrrolidin-3-yl)benzamide], the pEC50 in data set [1] is 7.12. Moreover, the results for the negative-log Ki (pKi) in data set [2] and in data set [3] were 8.27 and 7.21, respectively.
For the compound `CCS(=O)(=O)Nc1ccc(Oc2ccc(C#N)cc2)c(-c2cn(C)c(=O)c3[nH]ccc23)c1` [Example 90, N-[4-(4-cyanophenoxy)-3-(6-methyl-7-oxo-6,7-dihydro-1H-pyrrolo[2,3-c]pyridin-4-yl)phenyl]ethanesulfonamide], the pEC50 in data set [1] was 7.77. Besides, the pKi in data set [2] is 8.17; in data set [3], 8.40.
Consider `Cn1cc(-c2cc([N+](=O)[O-])ccc2Oc2ccccc2)c2cc[nH]c2c1=O` [Example 2, 6-methyl-4-(5-nitro-2-phenoxyphenyl)-1,6-dihydro-7H-pyrrolo[2,3-c]pyridin-7-one], for which the pEC50 in data set [1] was 6.07. For the same compound, the pKi in data set [2] is 6.75; in data set [3] it was 6.28.
As for `Cn1cc(-c2cc(S(C)(=O)=O)ccc2Oc2cc(C(F)(F)F)ccc2Cl)c2cc[nH]c2c1=O` [Example 163, 4-{2-[2-chloro-5-(trifluoromethyl)phenoxy]-5-(methylsulfonyl)phenyl}-6-methyl-1,6-dihydro-7H-pyrrolo[2,3-c]pyridin-7-one], the pEC50 in data set [1] was 6.53.
As to `CCNC(=O)c1cc2c(-c3cc(NS(C)(=O)=O)ccc3Oc3ccccc3)nn(C)c(=O)c2[nH]1` [Example 81, N-ethyl-6-methyl-4-{5-[(methylsulfonyl)amino]-2-phenoxyphenyl}-7-oxo-6,7-dihydro-1H-pyrrolo[2,3-d]pyridazine-2-carboxamide], the pEC50 in data set [1] was 6.99. Moreover, the pKi was 9.00 in data set [2] and 8.02 in data set [3].
